Measurements: patent US12503432B2, “Ionizable lipids for nucleic acid delivery” (Global Life Sciences Solutions Canada ULC, priority 2019, dated 2025)

Experiments:
[1] = LNP characterization: size and PDI by dynamic light scattering, mRNA encapsulation efficiency by RiboGreen assay; assay type: physicochemical
Procedure: Particle sizes and “polydispersity index” (PDI) of the lipid particle were measured by dynamic light scattering (DLS). PDI indicates the width of the particle distribution. This is a parameter calculated from a cumulative analysis of the (DLS)-measured intensity autocorrelation function assuming a single particle size mode and a single exponential fit to the autocorrelation function. […] The particles produced by mechanical micromixers such as the NanoAssemblr® Spark™ and NanoAssemblr® Benchtop (Precision NanoSystems Inc.) are substantially homogeneous in size assuming all other variables are neutral. A lower PDI indicates a more homogenous population of lipid particles. The Spark™ instrument is used in a screening setting to identify the lead compositions. Once the composition is selected, the lipid particle can be fine-tuned using the NanoAssemblr® Benchtop. Once the process parameters Flow Rate Ratio and Total Flow Rate is identified for the specific nanoparticle composition, the nanoparticle technology can be scaled up using the same process parameter values.
Lipid particles were also manufactured by a larger microfluidic mixer instrument, the NanoAssemblr® Ignite™ for testing. Briefly, 350 μL of mRNA was diluted using 100 mM sodium acetate buffer to the required concentration of 0.2 to 0.3 mg/mL. Lipid particle samples were then prepared by running both fluids, namely, nucleic acids in aqueous solvent and Lipid Mix in ethanol at a flow ratio of 3:1 and at a total flow rate of 12 ml/min in the microfluidic mixer. Following mixing in the microfluidic device, the post cartridge lipid nucleic acid particle sample was diluted into RNAse free tubes containing three to 40 volumes of phosphate buffered saline (PBS), pH 7.4. Ethanol was finally removed through dialysis in PBS, pH 7, or using Amicon™ centrifugal filters (Millipore, USA) at 3000 RPM, or using TFF systems. Once the required concentration was achieved, the lipid nucleic acid particles were filter sterilized using 0.2 μm filters in aseptic conditions. Final encapsulation efficiency was measured by the Ribogreen™ assay. Quant-iT™ RiboGreen® RNA Reagent and Kit (Invitrogen) following manufacturer directions.
Messenger RNA or plasmid nucleic acid therapeutic (NAT) as described below, was diluted using sodium acetate buffer to the required concentration. Lipid nucleic acid particle (LNAP) samples were then prepared by running both fluids using the NanoAssemblr® Spark instrument. Briefly, […] of nucleic acids in 100 mM sodium acetate buffer in a total volume of 32 μL was mixed with 16 μL of 37.5 mM lipid mix solution as required by the N/P ratios (4, 6, or 10 in illustrated examples). The microfluidically mixed lipid nucleic acid particles (LNAP) made in the instrument were immediately diluted down with 48 μL Ca++ and Mg++ free 1× PBS at pH 7.4 in the aqueous output well. These LNAP were immediately collected into microcentrifuge tubes containing 96 μL of the same buffer at pH 7.4. Encapsulation efficiency was measured by a modified Ribogreen™ assay (Quanti-iT RiboGreen™ RNA assay kit, Fisher). This information was used to establish the desired dosage.
After the lipid particles were made as described in Example 17, particle size (hydrodynamic diameter of the particles) was determined by Dynamic Light Scattering (DLS) using a ZetaSizer™ Nano ZS™ (Malvern Instruments, UK). He/Ne laser of 633 nm wavelength was used as the light source. Data were measured from the scattered intensity data conducted in backscattering detection mode (measurement angle=173). Measurements were an average of 10 runs of two cycles each per sample. Z-Average size was reported as the particle size, and is defined as the harmonic intensity averaged particle diameter. These LNP characteristics, as well as the results of the mRNA encapsulation efficiency for various Lipid Mixes are also described in the application are shown in Tables 4, 5 and 6. […]

[2] = TNS fluorescence assay: experimental pKa of formulated lipid nanoparticles; assay type: physicochemical; settings: experimental surface pKa of empty LNP, cationic lipid/DSPC/cholesterol/PEG-lipid (50/10/38.5/1.5)
Procedure: The pKa of each cationic lipid was determined in lipid nanoparticles using an assay based on fluorescence of 6-(p-Toluidino)-2-naphthalenesulfonic acid sodium salt (TNS, Sigma Aldrich), which is a fluorescent probe for the conformational state of proteins^5. Empty lipid nanoparticles comprising of cationic lipid/DSPC/cholesterol/PEG-lipid (50/10/38.5/1.5) in distilled water at a concentration of 3.125 mM total lipid are formulated using NanoAssemblr® Spark™, and were then was characterized for LNP quality on the Zetasizer™ using a 30× dilution with 1×PBS in the low volume cuvette. Lipid nanoparticles were further diluted 4× using distilled water to 0.781 mM total lipid. TNS was prepared as a 25 μM stock solution in distilled water. Then 6.4 μL of diluted LNP samples of 0.781 mM total lipid were mixed with 10 μL of diluted TNS to a final volume of 250 μL with buffer containing 10 mM HEPES, 10 mM MES, 10 mM NH4OAc and 130 mM NaCl where the pH ranged from 3 to 9 in 0.5 pH increments.
Samples were mixed thoroughly, and the fluorescence intensity was measured at room temperature in a BioTek™ Synergy™ H1 Hybrid Multi-Mode Monochromator™ Fluorescence Microplate Reader using excitation and emission wavelengths of 321 nm and 445 nm respectively. A sigmoidal best fit analysis was applied to the fluorescence data using GraphPad Prism™ software, and the pKa was measured as the pH at half-maximal fluorescence intensity.

[3] = 5-moU EPO encoded LNPs, IL:DSPC:cholesterol:DMG-PEG (50:10:38.5:1.5), N/P 6
[4] = OVA encoded LNPs, payload WT OVA, LM02, N/P 8
[5] = Table 4 LNPs, payload and lipid mix not stated
[6] = OVA encoded LNPs, payload 5-moU OVA, LM02, N/P 8

SMILES	Diameter (Z. ave, nm) [1, 3]	Encapsulation Efficiency (%) [1, 3]	Polydispersity Index (PDI) [1, 3]	Diameter (Z. ave, nm) [1, 4]	Encapsulation Efficiency (%) [1, 4]	Polydispersity Index (PDI) [1, 4]	Diameter (Z. ave, nm) [1, 5]	Encapsulation Efficiency (%) [1, 5]	Polydispersity Index (PDI) [1, 5]	pKa [2]	Diameter (Z. ave, nm) [1, 6]	Encapsulation Efficiency (%) [1, 6]	Polydispersity Index (PDI) [1, 6]
CC/C=C\CC1C(CC(=O)OCC(COCCCCCCCC/C=C\C/C=C\CCCCC)OCCCCCCCC/C=C\C/C=C\CCCCC)CCC1OC(=O)CCCN(C)C (centres unmarked) [PNI 101]	97.7 nm	93.4%	0.08	93.2 nm	98.4%	0.09	74.10 nm	93.0%	0.156	6.37	–	–	–
CC/C=C\CC1C(CC(=O)OCC(COCCCCCCCC/C=C\C/C=C\CCCCC)OCCCCCCCC/C=C\C/C=C\CCCCC)CCC1OC(=O)C1(C)CCN(C)CC1 (centres unmarked) [PNI 123]	76.6 nm	97.3%	0.04	96.5 nm	76.1%	0.03	124.7 nm	60.1%	0.054	6.01	–	–	–
CC/C=C\CC1C(CC(=O)OCC(COCCCCCCCC/C=C\C/C=C\CCCCC)OCCCCCCCC/C=C\C/C=C\CCCCC)CCC1OC(=O)C1CCN(C)CC1 (centres unmarked) [PNI 132]	70.3 nm	98.2%	0.04	82.6 nm	97.1%	0.07	74.5 nm	98.2%	0.06	6.1	–	–	–
CC/C=C\CC1C(CC(=O)OC(CCCCCCCCC2CC2CCCCCCCC)CCCCCCCCC2CC2CCCCCCCC)CCC1OC(=O)CCCN(C)C (centres unmarked) [PNI 516]	69.0 nm	98.7%	0.02	75.9 nm	98.6%	0.02	68.5 nm	98.7%	0.12	6.18	76.5 nm	98.2%	0.04
CC/C=C\CC1C(CC(=O)OCC(COCCCCCCCC/C=C\C/C=C\CCCCC)OCCCCCCCC/C=C\C/C=C\CCCCC)CCC1OC(=O)CCCN(CC)CC (centres unmarked) [PNI 542]	68.5 nm	98.7%	0.02	74.6 nm	98.7%	0.01	79.4 nm	98.8%	0.04	6.11	–	–	–
CC/C=C\CC1C(CC(=O)OCC(COCCCCCCCCC2CC2CCCCCCCC)OCCCCCCCCC2CC2CCCCCCCC)CCC1OC(=O)CCN(C)C (centres unmarked) [PNI 544]	62.3 nm	97.6%	0.05	–	–	–	51.3 nm	97.9%	0.04	5.68	–	–	–
CCCCCCCCC1CC1CCCCCCCCOCC(COC(=O)CC1CCC(OC(=O)CCCN(C)C)C1CC1CC1CC)OCCCCCCCCC1CC1CCCCCCCC (centres unmarked) [PNI 545]	59.0 nm	98.6%	0.04	–	–	–	63.9 nm	98.4%	0.07	5.91	–	–	–
CCCCCCCCC1CC1CCCCCCCCOCC(COC(=O)CC1CCC(OC(=O)CCN(C)C)C1CC1CC1CC)OCCCCCCCCC1CC1CCCCCCCC (centres unmarked) [PNI 546]	56.9 nm	96.3%	0.09	–	–	–	64.0 nm	96.3%	0.03	4.84	–	–	–
CC/C=C\CC1C(CC(=O)OC(CCCCCCCCC2CC2CCCCCCCC)CCCCCCCCC2CC2CCCCCCCC)CCC1OC(=O)CCN(C)C (centres unmarked) [PNI 549]	62.5 nm	97.4%	0.06	–	–	–	71.2 nm	96.4%	0.05	5.27	–	–	–
CC/C=C\CC1C(CC(=O)OCCC(CCCCCCCC)OC(=O)C(CCCCCC)CCCCCCCC)CCC1OC(=O)CCN(C)C (centres unmarked) [PNI 554]	55.4 nm	97.5%	0.09	–	–	–	55.1 nm	96.6%	0.06	5.52	–	–	–
CC/C=C\CC1C(CC(=O)OCC(COCCCCCCCC/C=C\C/C=C\CCCCC)OCCCCCCCC/C=C\C/C=C\CCCCC)CCC1OC(=O)CC1CCN(C)C1 (centres unmarked) [PNI 557]	71.8 nm	98.9%	0.08	–	–	–	95.4 nm	98.7%	0.02	6.7	–	–	–
CC/C=C\CC1C(CC(=O)OCC(COCCCCCCCC/C=C\C/C=C\CCCCC)OCCCCCCCC/C=C\C/C=C\CCCCC)CCC1OC(=O)CCCN1CCCC1 (centres unmarked) [PNI 558]	73.2 nm	98.9%	0.03	–	–	–	91.2 nm	98.7%	0.07	6.28	–	–	–
CC/C=C\CC1C(CC(=O)OCC(COCCCCCCCC/C=C\C/C=C\CCCCC)OCCCCCCCC/C=C\C/C=C\CCCCC)CCC1OC(=O)CC1CCCCN1C (centres unmarked) [PNI 559]	64.6 nm	97.3%	0.03	–	–	–	59.4 nm	95.9%	0.07	5.16	–	–	–
CC/C=C\CC1C(CC(=O)OC(CCCCCCCCC2CC2CCCCCCCC)CCCCCCCCC2CC2CCCCCCCC)CCC1OC(=O)C1(C)CCN(C)CC1 (centres unmarked) [PNI 560]	63.1 nm	98.7%	0.06	76.7 nm	97.7%	0.05	60.5 nm	98.4%	0.06	5.7	–	–	–
